The text below walks through data of ChEMBL document CHEMBL1146757, “Silanediol peptidomimetics. Evaluation of four diastereomeric ACE inhibitors” (Bioorg Med Chem Lett, 2004).

Structures are written as SMILES.

For the assay, the target named is T1, Angiotensin-converting enzyme (Oryctolagus cuniculus, UniProt P12822).
T1 sequence (P12822 whole entry): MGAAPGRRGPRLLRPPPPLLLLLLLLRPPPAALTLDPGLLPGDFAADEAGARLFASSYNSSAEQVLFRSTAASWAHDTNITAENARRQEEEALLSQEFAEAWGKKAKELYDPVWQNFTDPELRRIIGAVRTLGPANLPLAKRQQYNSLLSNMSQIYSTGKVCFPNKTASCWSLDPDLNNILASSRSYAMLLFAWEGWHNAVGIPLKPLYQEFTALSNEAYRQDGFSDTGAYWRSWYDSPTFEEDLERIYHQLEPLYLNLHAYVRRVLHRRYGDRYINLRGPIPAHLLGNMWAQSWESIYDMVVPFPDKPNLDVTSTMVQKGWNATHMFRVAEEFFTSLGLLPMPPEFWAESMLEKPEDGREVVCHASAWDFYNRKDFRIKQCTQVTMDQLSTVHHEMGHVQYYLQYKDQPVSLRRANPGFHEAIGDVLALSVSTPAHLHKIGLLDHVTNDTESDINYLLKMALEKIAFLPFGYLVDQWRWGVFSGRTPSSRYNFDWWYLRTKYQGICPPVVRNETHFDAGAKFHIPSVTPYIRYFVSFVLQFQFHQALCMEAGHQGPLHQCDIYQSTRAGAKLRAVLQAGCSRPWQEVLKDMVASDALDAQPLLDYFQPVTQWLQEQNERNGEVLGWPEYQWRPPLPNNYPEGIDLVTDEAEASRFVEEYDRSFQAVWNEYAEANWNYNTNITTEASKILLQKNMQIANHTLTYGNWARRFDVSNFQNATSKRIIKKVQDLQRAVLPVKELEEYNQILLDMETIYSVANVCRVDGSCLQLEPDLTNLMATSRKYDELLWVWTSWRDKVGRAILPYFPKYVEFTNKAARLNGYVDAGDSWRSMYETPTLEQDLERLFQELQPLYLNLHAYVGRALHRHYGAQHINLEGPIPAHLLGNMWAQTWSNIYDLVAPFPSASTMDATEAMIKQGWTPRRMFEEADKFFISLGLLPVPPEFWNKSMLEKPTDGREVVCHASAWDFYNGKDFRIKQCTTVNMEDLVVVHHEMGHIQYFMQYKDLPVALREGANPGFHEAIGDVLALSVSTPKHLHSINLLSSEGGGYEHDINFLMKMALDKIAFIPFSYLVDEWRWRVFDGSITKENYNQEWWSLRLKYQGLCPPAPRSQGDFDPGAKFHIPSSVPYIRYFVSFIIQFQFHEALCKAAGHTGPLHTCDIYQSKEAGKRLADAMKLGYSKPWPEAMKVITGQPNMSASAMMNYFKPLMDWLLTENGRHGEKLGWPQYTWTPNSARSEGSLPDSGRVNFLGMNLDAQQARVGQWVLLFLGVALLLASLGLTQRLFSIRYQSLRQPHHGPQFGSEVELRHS
The assay can be described thus: Inhibitory activity of compound against angiotensin I converting enzyme was determined.
Take `CC(C)CC(NC(=O)c1ccccc1)[Si](O)(O)CC(C)C(=O)N1CCC[C@H]1C(=O)O` (stereo not given in full): the half-maximal inhibitory concentration (IC50) was determined as 14 nM.

`C[C@@H](C[Si](O)(O)[C@H](Cc1ccccc1)NC(=O)c1ccccc1)C(=O)N1CCC[C@H]1C(=O)O` displayed a concentration for half-maximal inhibition (IC50) of 207 nM.

`C[C@@H](C[Si](O)(O)[C@@H](Cc1ccccc1)NC(=O)c1ccccc1)C(=O)N1CCC[C@H]1C(=O)O`: the IC50 worked out at 72 nM.

Regarding `C[C@H](C[Si](O)(O)[C@@H](Cc1ccccc1)NC(=O)c1ccccc1)C(=O)N1CCC[C@H]1C(=O)O`, half-maximal inhibition (IC50) required 19 nM.

`C[C@H](C[Si](O)(O)[C@H](Cc1ccccc1)NC(=O)c1ccccc1)C(=O)N1CCC[C@H]1C(=O)O` returned a concentration for half-maximal inhibition (IC50) of 3.8 nM.
